Patent EP1437117A1, “Use of Sinapic acid and/or its derivatives” (Cognis France S.A., priority 2002, dated 2004)

Tests used:
[1] = tested on: Neuropeptiden wie beispielsweise Substanz P oder CGRP; test: Release of neuropeptides; assay type: cell-based
From the text: Die Haut ist ein Gewebe, das mit einer Vielzahl von Nervenfasern durchzogen ist, deren Zellkörper in den dorsalen Ganglien (dorsal root ganglia - DRG) zusammenführen. Neurone des Typs Aδ und C erreichen mit ihren Zellen die Dermis und auch die Epidermis. Typ C Neurone sind für die Detektion von noziceptiven Stimuli verantwortlich. Keratinocyten und Nervenfasern können eine Vielzahl unterschiedlicher Cytokine produzieren, die unter dem Einfluß externer Stimuli ausgeschieden werden und die sensorischen Enden der Nervenfasern stimulieren. Diese setzen dann wiederum Peptide frei, die die metabolische Aktivität der Keratinocyten über Messenger-Moleküle beeinflussen. Auf diese Weise kommunizieren sensorische Nerven und Keratinocyten kontinuierlich miteinander. Eine Disregulation dieses physiologischen Gleichgewichts erklärt viele pathologische Erscheinungen von empfindlicher Haut oder beispielsweise Psoriasis. Es konnte nun festgestellt werden, dass Sinapinsäure und ihre Derivate insbesondere empfindliche Haut dadurch beruhigen, dass sie die Freisetzung von Neuropeptiden wie beispielsweise Substanz P oder CGRP herabsetzen.

dermaler Fibroblasten = test: Collagen synthesis of dermal fibroblasts; assay type: cell-based
From the text: Die menschliche Haut enthält vorwiegend zwei Typen von Collagen: Collagen Typ I und Collagen Typ III, synthetisiert durch dermale Fibroblasten. Beide Collagentypen stellen wesentliche Strukturkomponenten der extrazellulären Matrix des Bindegewebes dar und tragen in hohem Maße zur Struktur der gesamten Haut bei. Ein wichtiges Kennzeichen alternder Haut ist die Abnahme des Collagengehaltes in der Dermis und eine damit verbundene Abnahme der Elastizität, die zusätzlich durch eine Verschlechterung der Fibroblastenfunktion durch nicht enzymatische Glycosylierung (Glycation) und oxidativen Abbau bewirkt wird. Es wurde nun festgestellt, dass Sinapinsäure und ihre Derivate die Collagensynthese dermaler Fibroblasten stimulieren und auf diese Weise die chronologische und die UV-Strahlungsinduzierte Hautalterung verzögert werden kann. Die Verwendung von Sinapinsäure und/oder Sinapinsäurederivaten zur Herstellung kosmetischer und/oder dermopharmazeutischer Zubereitungen zur Stimulation der Collagensynthese in dermalen Fibroblasten ist daher ein weiterer Gegenstand der Erfindung.

[2] = tested on: Carrageenan-induzierten Rattenpfotenödem-Modell; settings: after injection into the paw; Chawla AS et al 1993; cited from earlier work
[3] = in Ethanol; cited from earlier work
zellulärer DNA = test: UV-induced thymine dimer formation in cellular DNA; assay type: cell-based; settings: induced by UV radiation; topical application
From the text: Es konnte festgestellt werden, dass durch die topische Anwendung von Sinapinsäure und ihren Derivaten insbesondere die Bildung von Thymin-Dimeren in zellulärer DNA, die durch UV-Strahlung induziert wird, vermindert wird. Dadurch kann die Anzahl der Mutationen gesenkt und eine Stärkung des dermalen Immunsystems bewirkt werden. Ein weiterer Gegenstand der Erfindung ist daher die Verwendung von Sinapinsäure und/oder Sinapinsäurederivaten zur Herstellung von kosmetischen und/oder dermopharmazeutischen Zubereitungen zum Schutz vor Thymin-Dimerbildung nach Einfluß von UV-Strahlung in Hautzellen und zur Verbesserung des DNA-Reparaturmechanismus in Hautzellen.

[4] = tested on: Adenosindinukleotide (ADN) der Mitochondrien; test: Protection of mitochondrial genome against oxidative stress; assay type: cell-based; settings: damage caused by oxidative stress
From the text: Sie vermindern die Schädigung des mitochondrialen Genoms, die durch oxidativen Stress bewirkt wird und führen dadurch zu einer Verzögerung der Alterung von Mitochondrien und zu einer Verbesserung des Energiepotentials der Zellen. Somit können Sinapinsäure und ihre Derivate über die Verbesserung der mitochondrialen Funktion und Energiebilanz zum Schutz der Haut gegen Alterung und Faltenbildung, zur Steigerung effektiver Reparaturmechanismen durch Alterung und Sonneneinstrahlung geschädigter Haut und zur verbesserten Wundheilung der Haut entscheidend beitragen.

[5] = assay type: physicochemical
From the text: Vorzugsweise wird jedoch die reine, nicht derivatisierte Sinapinsäure und deren Salze eingesetzt. […] Die entstehenden Abbauprodukte bilden gefärbte übelriechende Substanzen, die auch zu Hautreizungen führen können. Es ist daher ein weiterer Gegenstand der Erfindung Sinapinsäure und/oder ihre Derivate in verkapselter, komplexierter oder adsorbierter Form in den Zubereitungen einzusetzen. Dabei bietet sich insbesondere die Verkapselung in Liposomen oder einer hydrophoben Matrix, die Komplexierung in Cyclodextrinen und die Adsorption an hydrophobe Träger an. Bevorzugt wird Sinapinsäure und/oder ihre Derivate in Mikrokapseln eingearbeitet.

COc1cc(/C=C/C(=O)O)cc(OC)c1O [Sinapinsäure, 4-Hydroxy-3,5-Dimethoxy-Zimtsäure]
Freisetzung von Neuropeptiden wie beispielsweise Substanz P oder CGRP [1]: herabsetzen | Collagensynthese dermaler Fibroblasten (dermaler Fibroblasten): stimulieren | anti-inflammatorische Wirkung [2]: anti-inflammatorische Wirkung | UV-Absorptionsmaximum [3]: 323 nm | Bildung von Thymin-Dimeren in zellulärer DNA (zellulärer DNA): vermindert | Wirkung auf Adenosindinukleotide (ADN) der Mitochondrien [4]: schützende Wirkung | chemische Stabilität [5]: leicht zersetzt
